Laboratory results reported in the NIST ThermoML archive (doi:10.1021/acs.jced.7b00761).
± gives the expanded uncertainty stated by the source.

Assay: wn = mass fraction of the nth substance listed
Settings: 313 K, 101.3 kPa, Liquid, w1 = 0.3

## CCNCCO [2-(ethylamino)ethanol] + CCN(CC)CCO
Vibrating wire viscometry
  viscosity: 3.83 ± 0.21 mPa·s
Petroleum hydrometers
  mass density: 879 ± 3 kg/m3
